# What was measured:
# [1] = Real time FT-IR curing performance at 405 nm in neat TMPTA; details: 20 μm thickness, laminated
# Method: The curing performance of individual products prepared above was assessed using real time FT-IR measurement. The photoinitiators were dissolved either in neat trimethylolpropane triacrylate (TMPTA; available as SR351 from Sartomer) or in a 1:1 (w/w) mixture of TMPTA and UViCure S105 as indicated, applied onto the FT-IR measurement plate, laminated to prevent oxygen inhibition, and irradiated with the indicated LED light source. For the epoxy component, the polymerization rate and final reactive group conversion were determined by monitoring the change of the relevant infrared band near 900 cm^−1 corresponding to an epoxide ring. For the acrylate component, the C═C stretch band near 1625 cm^−1 was used.
# [2] = Belt curing performance (thumb-twist depth cure) in UViCure S105E resin; details: 24 μm film, under air, PI 2 wt %
# [3] = Belt curing performance (thumb-twist depth cure) in hybrid acrylate/epoxy resin; details: 24 μm film, under air, PI 2 wt %
# [4] = Colour index 'b' of formulations before and after polymerization; assay type: physicochemical; details: UViCure S105E, thin samples (20 μm), under air, 300 s irradiation
# Method: The low yellowing characteristics can be measured by the Colour index ‘b’ value on cured films.
# Formulations comprising the photoinitiators and neat UViCure S105E resin were prepared as described at example 2.
# [5] = Solubility in propylene carbonate at ambient temperature; assay type: physicochemical; details: 20-25° C.
# Method: Solubility of selected sulfonium salts in propylene carbonate at ambient temperature (20-25° C.) was determined.
# [6] = Thermal stability by DSC in TMPTA/UViCure S105E (1:1) hybrid resin; assay type: physicochemical; details: DSC at 10° C./min, loading 1 wt %
# Method: Formulations comprising the photoinitiators and neat UViCure S105E resin and/or TMPTA resin were prepared as described at example 2.
# [7] = Transmittance at 0.01% w/v in propylene carbonate; assay type: physicochemical
# Method: The samples were prepared at 0.01% w/v in propylene carbonate.
# [8] = FTIR-ATR cure test of hybrid formulations (acrylate, epoxide conversion, 1100 cm^-1 peak growth); details: 405 nm, 0.5% TPO-L, high or low epoxide hybrid systems; matched with control SC938/CPTX
# Method: (§1) Matrixes: In a 1000 mL of metal can, formulation matrix was charged according to the percentage in Table 12. The 1000-1005 g mixture of each matrix sample was prepared and mixed by mechanical mixer for about 1 hour around 60° C. until the solution became clear. Formulations: In a white max 50 jar from FlackTek Inc., photoinitiator and propylene carbonate were loaded at first, mixed by hand with stainless steel spatula, placed in 60° C. oven for about 1 h, mixed again until it became clear. Then, formulation matrix was charged according to the percentage in one of Table 13 to 21. The […]-52.60 g mixture of each sample was prepared and mixed for 3 minutes at 3000 RPM in Speed Mixer from FleackTec Inc. Then, all jars were placed in 60° C. oven for about 2 h, taken out and immediately mixed for another 2 minutes until the solution became clear.
# (§2) A Fourier Transform Infrared (FTIR) with an Attenuated Total Reflection (ATR) setup was used. All polymerization rate measurements were performed using Nicolet iS50 FT-IR Spectrometer from Thermo Scientific, equipped with a standard DLaTGS detector. A lamp holder for the ART platform of FTIR unit can be customized and printed from Arkema N3xtDimention® engineered resin N3D-TOUGH784 in order to ensure precisely fit of a 365 nm lamp Accucure ULM-2-365 or a 405 nm lamp Accucure ULM-2-405 from Digital Light Labs. On the bottom of this lamp holder, a dry air channel is built in to allow air uniformly blowing over sample surface, the gas flow rate can be controlled over a rotameter. The LED light was manually triggered by Ultraviolet illumination & Measurement System. LED light exposure can be programed by AccuCure software. For measurement, 25 μL of liquid sample was placed in the center of an ATR crystal. 3 mil of thin film was prepared by a customized coating applicator (3 mil WFM, G1046 from BYK). The LED lamp with holder was place on the top of ART platform. Then FTIR scan was initiated to collect liquid IR spectrum at first. Each IR spectrum of a specific exposure time at 10 mW/cm^2 of LED light were collected. Measurements of acrylate conversion were taken at the peak height under the reference peak around 1727 cm^−1; the acrylate peak of SR833S at approximately 1407 cm^−1, the epoxide peak of UviCure S105 at approximately 790 cm^−1, and the oxetane peak of UViCure S130 at approximately 970 cm^−1 were also measured. Since the ring opening of both epoxide and oxetane generated C—O—C bond, the growth of C—O—C IR peak height at ~1100 cm^−1 was monitored as well. The resulting of peak 1100 cm^−1 growth rate could be calculated to assess total cationic cure speed. Peak heights were determined using the same baseline where a baseline is chosen to be the two lowest points between 600 cm^−1 and 1800 cm^−1. The peak height under the peak and above the baseline was then determined. The integration limits for liquid and the cured sample are not identical but are similar, especially for the reference peak.
# (§3) The ratios of the acrylate peak height, epoxide peak height, ring opening peak height from both epoxide and oxetane to the reference peak height were determined for both the liquid and the cured samples. Degree of cure or conversion or peak growth rate, expressed as percentage reacted acrylate or epoxide or ring opening of both epoxide and oxetane, was calculated from the equation below: […]
# (§4) Where Rliq is the peak height ratio of the liquid sample and Rc is the peak height ratio of the LED cured sample. The resulting acrylate and epoxide conversions or C—O—C growth rates were collected and listed in Tables 13 to 21, plotted in FIG. 1 to 8 and FIG. 10.
# [9] = FTIR-ATR cure test of cationic formulations (epoxide, oxetane conversion, 1100 cm^-1 peak growth); details: 405 nm, cationic systems
# Method: as §1, §2, §3, §4
# [10] = LED 365 nm, 100% intensity (=70.1 mJ/cm^2), belt speed 40 m/min
smiles,measurement,setting,value
"CC(C)c1ccc2sc3ccc(-[s+]4c5ccccc5c(=O)c5cc(C(C)C)ccc54)cc3c(=O)c2c1 (centres unmarked) [Photoinitiator 1, 9-oxo-10-[9-oxo-7-(propan-2-yl)-9H-thioxanthen-2-yl]-2-(propan-2-yl)-9H-thioxanthen-10-ium hexafluorophosphate]",Acrylate Polymerization rate Rp/[M0]*100,[1]; LED @405 nm (110 W/cm^2),3.43 s⁻¹
same,Acrylate Final conversion,[1]; LED @405 nm (110 mW/cm^2),38%
same,Cure speed in UViCure S105E resin,[2]; [10],12.2 m/min
same,Cure speed in UViCure S105E resin,"[2]; LED 395 nm, 40 m/min, 100% intensity (=164.5 mJ/cm^2)",20.0 m/min
same,Cure speed in hybrid acrylate/epoxy resin,[3]; [10],20.0 m/min
same,Cure speed in hybrid acrylate/epoxy resin,"[3]; LED 395 nm, 80 m/min, 50% intensity (=36.9 mJ/cm^2)",40.0 m/min
same,Colour index ‘b’ value After Polymerization,[4]; LED @365 nm (120 mW/cm^2),8.81
same,Colour index ‘b’ value Before Polymerization,[4]; LED @365 nm (120 mW/cm^2),6.38
same,Colour index ‘b’ value After Polymerization,[4]; LED @385 nm (160 mW/cm^2),8.71
same,Colour index ‘b’ value Before Polymerization,[4]; LED @385 nm (160 mW/cm^2),6.13
same,Solubility in propylene carbonate,[5],>50 wt %
same,onset temperature of thermal polymerisation,[6],133 °C
same,% Transmittance at 355 nm,[7],8.0%
same,% Transmittance at 420 nm,[7],90.3%
same,Epoxide cure compared with Omnicat 550,[8],better than that from Omnicat 550
same,cationic cure compared with 2 (comp.) or 4 (comp.),[9],performed slightly better than 2 (comp.) or 4 (comp.)
same,"epoxide, oxetane and total cationic cure compared with Omnicat550 and SC992",[9],"better epoxide cure, oxetane cure as well as total cationic cure than both Omnicat550 and SC992"
